Each molecule was assayed against T1, Human recombinant DHX9 protein (Homo sapiens, UniProt Q08211) (assay: DHX9 ATPase assay (ADP-Glo biochemical assay)). Settings: maximum inhibition in ATPase assay; 10 μM Aurintricarboxylic acid = 100%.
T1 construct: purchased Viva
T1 sequence (Q08211 whole entry): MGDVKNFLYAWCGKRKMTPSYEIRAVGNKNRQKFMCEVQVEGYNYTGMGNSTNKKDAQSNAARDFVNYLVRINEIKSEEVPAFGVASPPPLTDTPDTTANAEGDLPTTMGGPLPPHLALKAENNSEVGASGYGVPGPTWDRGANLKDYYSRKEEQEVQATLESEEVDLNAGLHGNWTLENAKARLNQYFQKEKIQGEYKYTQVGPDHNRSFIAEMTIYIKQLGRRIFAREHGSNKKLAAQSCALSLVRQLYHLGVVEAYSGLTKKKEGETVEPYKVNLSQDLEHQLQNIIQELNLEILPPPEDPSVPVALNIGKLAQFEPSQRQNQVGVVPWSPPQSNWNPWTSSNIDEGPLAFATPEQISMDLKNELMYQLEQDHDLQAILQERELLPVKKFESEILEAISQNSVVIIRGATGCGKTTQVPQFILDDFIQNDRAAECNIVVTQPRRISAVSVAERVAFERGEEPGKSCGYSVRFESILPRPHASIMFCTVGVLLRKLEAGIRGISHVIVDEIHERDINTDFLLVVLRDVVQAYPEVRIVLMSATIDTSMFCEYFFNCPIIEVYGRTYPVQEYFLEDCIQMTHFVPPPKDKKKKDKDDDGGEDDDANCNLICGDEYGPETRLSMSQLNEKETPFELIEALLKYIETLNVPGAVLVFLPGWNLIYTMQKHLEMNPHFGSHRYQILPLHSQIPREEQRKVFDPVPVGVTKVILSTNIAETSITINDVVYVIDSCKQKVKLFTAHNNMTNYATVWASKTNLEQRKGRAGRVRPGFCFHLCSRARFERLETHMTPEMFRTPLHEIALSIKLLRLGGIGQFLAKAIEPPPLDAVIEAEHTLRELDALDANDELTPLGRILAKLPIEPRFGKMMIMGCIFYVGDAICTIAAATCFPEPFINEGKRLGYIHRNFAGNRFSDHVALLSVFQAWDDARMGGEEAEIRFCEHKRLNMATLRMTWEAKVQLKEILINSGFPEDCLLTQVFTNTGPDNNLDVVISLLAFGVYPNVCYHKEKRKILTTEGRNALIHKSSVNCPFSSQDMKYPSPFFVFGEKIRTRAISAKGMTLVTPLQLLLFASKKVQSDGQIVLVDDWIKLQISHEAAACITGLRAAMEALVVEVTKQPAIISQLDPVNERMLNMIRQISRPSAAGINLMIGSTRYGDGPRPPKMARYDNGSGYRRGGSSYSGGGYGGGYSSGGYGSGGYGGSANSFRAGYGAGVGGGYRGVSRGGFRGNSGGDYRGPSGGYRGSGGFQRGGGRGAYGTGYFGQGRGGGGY

Structure (SMILES) | DHX9 Biochemical Max Inhibition
CS(=O)(=O)Nc1cccc(NC(=O)c2cnn(Cc3ccccc3)c2)c1 [Example 35, 1-benzyl-N-(3-methanesulfonamidophenyl)pyrazole-4-carboxamide] | 69.3%
CS(=O)(=O)Nc1cccc(NC(=O)c2cc(-c3ccccc3)[nH]n2)c1 [Example 36] | 56.3%
CS(=O)(=O)Nc1cccc(NC(=O)c2cccc(-c3ccccc3)c2)c1 [Example 37] | 67%
CS(=O)(=O)Nc1cccc(NC(=O)c2ccc(-c3ccccc3)cc2)c1 [Example 38] | 38.6%
CS(=O)(=O)Nc1cccc(NC(=O)c2ccc(-n3cccn3)cc2)c1 [Example 39] | 55.3%
CS(=O)(=O)Nc1cccc(NC(=O)c2nc(-c3ccccc3)cs2)c1 [Example 42] | 71.4%
CS(=O)(=O)Nc1cccc(NC(=O)c2cnn(-c3ncccn3)c2)c1 [Example 43] | 68.7%
Cc1ccccc1-c1csc(C(=O)Nc2cccc(NS(C)(=O)=O)c2)c1 [Example 46] | 73.9%
Cc1cccc(-c2csc(C(=O)Nc3cccc(NS(C)(=O)=O)c3)c2)c1 [Example 47] | 67.7%
Cc1ccc(-c2csc(C(=O)Nc3cccc(NS(C)(=O)=O)c3)c2)cc1 [Example 48] | 67.5%
CS(=O)(=O)Nc1cccc(NC(=O)c2cc(-c3ccc(O)cc3)[nH]n2)c1 [Example 64] | 78.1%
COc1cccc(-c2csc(C(=O)Nc3cccc(NS(C)(=O)=O)c3)c2)c1C [Example 67] | 70.1%
COc1ccc(C)c(-c2csc(C(=O)Nc3cccc(NS(C)(=O)=O)c3)c2)c1 [Example 68] | 70.3%
CS(=O)(=O)Nc1cccc(NC(=O)c2cc(Cc3ccccc3)cs2)c1 [Example 71] | 66.5%
COc1ccc(-c2cc(C(=O)Nc3cccc(NS(C)(=O)=O)c3)n[nH]2)cc1 [Example 78] | 61.5%
CS(=O)(=O)Nc1cccc(NC(=O)c2cc(-c3ccccc3)c(Br)s2)c1 [Example 98, 5-bromo-N-(3-(methylsulfonamido)phenyl)-4-phenylthiophene-2-carboxamide] | 77.7%
CS(=O)(=O)Nc1cccc(NC(=O)c2cc(-c3ccccc3)c(C(=O)O)s2)c1 [Example 101, 5-[(3-methanesulfonamidophenyl)carbamoyl]-3-phenylthiophene-2-carboxylic acid] | 79.1%
CS(=O)(=O)Nc1cccc(NC(=O)c2cc(C(=O)NCCc3cccnc3)cs2)c1 [Example 103] | 71.7%
Cc1ccc(NC(=O)c2csc(C(=O)Nc3cccc(NS(C)(=O)=O)c3)c2)cc1Cl [Example 104] | 67.3%
CS(=O)(=O)Nc1cccc(NC(=O)c2cc(C(=O)NCC3(O)CCCCC3)cs2)c1 [Example 105] | 70.3%
COc1ccc(NC(=O)c2csc(C(=O)Nc3cccc(NS(C)(=O)=O)c3)c2)cn1 [Example 106] | 72.3%
Cc1c(NC(=O)c2csc(C(=O)Nc3cccc(NS(C)(=O)=O)c3)c2)c(=O)n(-c2ccccc2)n1C [Example 107] | 74.6%
CS(=O)(=O)Nc1cccc(NC(=O)c2cc(C(=O)Nc3ccc(OC(F)(F)F)cc3)cs2)c1 [Example 108] | 64.4%
CC(NC(=O)c1csc(C(=O)Nc2cccc(NS(C)(=O)=O)c2)c1)c1ccccc1 (centres unmarked) [Example 110] | 68.9%
CS(=O)(=O)Nc1cccc(NC(=O)c2cc(C(=O)NC3Cc4ccccc4C3)cs2)c1 [Example 112] | 68.9%
Cc1cc(NC(=O)c2csc(C(=O)Nc3cccc(NS(C)(=O)=O)c3)c2)ccc1Cl [Example 113] | 59.7%
CN(C)C(=O)c1ccc(NC(=O)c2csc(C(=O)Nc3cccc(NS(C)(=O)=O)c3)c2)cc1 [Example 114] | 73.5%

Same assay, conditions: read-out: DHX9 Biochemical Inflection Point

Structure (SMILES) | IC50
CS(=O)(=O)Nc1cccc(NC(=O)c2cnn(Cc3ccccc3)c2)c1 [Example 35, 1-benzyl-N-(3-methanesulfonamidophenyl)pyrazole-4-carboxamide] | 1490 nM
CS(=O)(=O)Nc1cccc(NC(=O)c2cc(-c3ccccc3)[nH]n2)c1 [Example 36] | 1860 nM
CS(=O)(=O)Nc1cccc(NC(=O)c2cccc(-c3ccccc3)c2)c1 [Example 37] | 1720 nM
CS(=O)(=O)Nc1cccc(NC(=O)c2ccc(-c3ccccc3)cc2)c1 [Example 38] | 345 nM
CS(=O)(=O)Nc1cccc(NC(=O)c2ccc(-n3cccn3)cc2)c1 [Example 39] | 994 nM
CS(=O)(=O)Nc1cccc(NC(=O)c2nc(-c3ccccc3)cs2)c1 [Example 42] | 544 nM
CS(=O)(=O)Nc1cccc(NC(=O)c2cnn(-c3ncccn3)c2)c1 [Example 43] | 373 nM
Cc1ccccc1-c1csc(C(=O)Nc2cccc(NS(C)(=O)=O)c2)c1 [Example 46] | 123 nM
Cc1cccc(-c2csc(C(=O)Nc3cccc(NS(C)(=O)=O)c3)c2)c1 [Example 47] | 264 nM
Cc1ccc(-c2csc(C(=O)Nc3cccc(NS(C)(=O)=O)c3)c2)cc1 [Example 48] | 105 nM
CS(=O)(=O)Nc1cccc(NC(=O)c2cc(-c3ccc(O)cc3)[nH]n2)c1 [Example 64] | 589 nM
COc1cccc(-c2csc(C(=O)Nc3cccc(NS(C)(=O)=O)c3)c2)c1C [Example 67] | 980 nM
CS(=O)(=O)Nc1cccc(NC(=O)c2cc(Cc3ccccc3)cs2)c1 [Example 71] | 1860 nM
COc1ccc(-c2cc(C(=O)Nc3cccc(NS(C)(=O)=O)c3)n[nH]2)cc1 [Example 78] | 698 nM
CS(=O)(=O)Nc1cccc(NC(=O)c2cc(-c3ccccc3)c(Br)s2)c1 [Example 98, 5-bromo-N-(3-(methylsulfonamido)phenyl)-4-phenylthiophene-2-carboxamide] | 543 nM
CS(=O)(=O)Nc1cccc(NC(=O)c2cc(-c3ccccc3)c(C(=O)O)s2)c1 [Example 101, 5-[(3-methanesulfonamidophenyl)carbamoyl]-3-phenylthiophene-2-carboxylic acid] | 54 nM
CS(=O)(=O)Nc1cccc(NC(=O)c2cc(C(=O)NCCc3cccnc3)cs2)c1 [Example 103] | 126 nM
Cc1ccc(NC(=O)c2csc(C(=O)Nc3cccc(NS(C)(=O)=O)c3)c2)cc1Cl [Example 104] | 504 nM
CS(=O)(=O)Nc1cccc(NC(=O)c2cc(C(=O)NCC3(O)CCCCC3)cs2)c1 [Example 105] | 210 nM
COc1ccc(NC(=O)c2csc(C(=O)Nc3cccc(NS(C)(=O)=O)c3)c2)cn1 [Example 106] | 67.9 nM
Cc1c(NC(=O)c2csc(C(=O)Nc3cccc(NS(C)(=O)=O)c3)c2)c(=O)n(-c2ccccc2)n1C [Example 107] | 168 nM
CS(=O)(=O)Nc1cccc(NC(=O)c2cc(C(=O)Nc3ccc(OC(F)(F)F)cc3)cs2)c1 [Example 108] | 708 nM
CC(NC(=O)c1csc(C(=O)Nc2cccc(NS(C)(=O)=O)c2)c1)c1ccccc1 (centres unmarked) [Example 110] | 81.9 nM
CS(=O)(=O)Nc1cccc(NC(=O)c2cc(C(=O)NC3Cc4ccccc4C3)cs2)c1 [Example 112] | 101 nM
Cc1cc(NC(=O)c2csc(C(=O)Nc3cccc(NS(C)(=O)=O)c3)c2)ccc1Cl [Example 113] | 515 nM
CN(C)C(=O)c1ccc(NC(=O)c2csc(C(=O)Nc3cccc(NS(C)(=O)=O)c3)c2)cc1 [Example 114] | 71.4 nM

Source: patent US20250179013A1, “INHIBITORS OF RNA HELICASE DHX9 AND USES THEREOF” (ACCENT THERAPEUTICS, INC., priority 2022, published 2025)
